Assay results from patent US11077167B2, “Agent for promoting skeletal muscle injury repair” (Osaka University, priority 2017, dated 2021).

System: angiogenesis
Test: Angiogenic activity
Settings: truncated peptides compared with SVVYGLR; confirmed by the present inventors, no method given

Substance	angiogenic activity
VVYGLR	retain the angiogenic activity of SVVYGLR
SVVYGL	retain the angiogenic activity of SVVYGLR
